The values that follow come from patent publication US12643886B2 (Ontario Institute for Cancer Research (OICR), priority 2021, dated 2026).

What all share (format): biochemical
In one test the target is T1, Aurora A (Homo sapiens, UniProt O14965).
T1 sequence (O14965 1-403): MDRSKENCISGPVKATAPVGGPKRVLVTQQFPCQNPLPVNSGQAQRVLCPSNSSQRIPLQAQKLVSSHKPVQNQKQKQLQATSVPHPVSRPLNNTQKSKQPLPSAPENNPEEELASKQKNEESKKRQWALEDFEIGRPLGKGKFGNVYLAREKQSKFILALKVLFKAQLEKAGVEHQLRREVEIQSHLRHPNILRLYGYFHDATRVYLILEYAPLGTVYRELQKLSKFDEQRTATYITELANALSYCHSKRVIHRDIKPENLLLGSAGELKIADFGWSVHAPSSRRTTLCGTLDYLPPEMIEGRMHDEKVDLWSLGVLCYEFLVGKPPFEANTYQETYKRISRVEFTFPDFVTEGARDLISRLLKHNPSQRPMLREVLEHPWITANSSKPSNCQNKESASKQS
As to the kind of experiment: Counter-screen against Aurora A. The following applies: read-out: AUR-A (IC50). A digest of the protocol:
(§1)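 Full-length recombinant NUAK2 incubated 40 min at room temperature in 8 mM MOPS pH 7.0, 0.2 mM EDTA, 10 mM magnesium acetate, 300 μM peptide substrate and 33P-ATP. Stopped with 0.5% phosphoric acid; filter-bound label counted by scintillation. IC50 reported as ranges; NUAK1 and Aurora A served as counter-screens.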
(The purpose of a counterscreen is to sort out artefacts and off-target activity.)

The next test deals with T2, NUAK2 (h) (Homo sapiens, UniProt Q9H093).
T2 construct: This assay was done radiometrically using full-length, recombinant enzyme; purchased Eurofins
T2 sequence (Q9H093 1-628): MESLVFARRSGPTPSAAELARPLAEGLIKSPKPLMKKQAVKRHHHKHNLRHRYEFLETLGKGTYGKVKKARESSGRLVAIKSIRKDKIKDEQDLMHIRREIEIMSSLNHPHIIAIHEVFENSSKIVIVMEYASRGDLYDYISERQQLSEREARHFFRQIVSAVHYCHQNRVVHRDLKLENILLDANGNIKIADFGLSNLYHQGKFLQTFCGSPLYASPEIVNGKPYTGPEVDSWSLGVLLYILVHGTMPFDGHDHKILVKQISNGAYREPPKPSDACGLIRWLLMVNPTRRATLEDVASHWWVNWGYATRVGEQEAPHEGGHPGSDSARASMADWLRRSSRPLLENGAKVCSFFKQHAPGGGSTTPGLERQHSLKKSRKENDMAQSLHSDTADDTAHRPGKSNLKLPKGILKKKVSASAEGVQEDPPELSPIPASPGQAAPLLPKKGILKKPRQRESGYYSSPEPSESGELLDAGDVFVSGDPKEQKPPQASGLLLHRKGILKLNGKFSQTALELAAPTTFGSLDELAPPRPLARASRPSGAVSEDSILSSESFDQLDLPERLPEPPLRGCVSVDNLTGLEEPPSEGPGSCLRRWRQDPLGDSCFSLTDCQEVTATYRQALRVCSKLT
As to the kind of experiment: NUAK2 enzymatic assay (radiometric, Eurofins). Particulars: full-length recombinant enzyme. The method in brief:
as §1

Another test has as its target T3, NUAK1 (Homo sapiens, UniProt O60285).
T3 sequence (O60285 1-661): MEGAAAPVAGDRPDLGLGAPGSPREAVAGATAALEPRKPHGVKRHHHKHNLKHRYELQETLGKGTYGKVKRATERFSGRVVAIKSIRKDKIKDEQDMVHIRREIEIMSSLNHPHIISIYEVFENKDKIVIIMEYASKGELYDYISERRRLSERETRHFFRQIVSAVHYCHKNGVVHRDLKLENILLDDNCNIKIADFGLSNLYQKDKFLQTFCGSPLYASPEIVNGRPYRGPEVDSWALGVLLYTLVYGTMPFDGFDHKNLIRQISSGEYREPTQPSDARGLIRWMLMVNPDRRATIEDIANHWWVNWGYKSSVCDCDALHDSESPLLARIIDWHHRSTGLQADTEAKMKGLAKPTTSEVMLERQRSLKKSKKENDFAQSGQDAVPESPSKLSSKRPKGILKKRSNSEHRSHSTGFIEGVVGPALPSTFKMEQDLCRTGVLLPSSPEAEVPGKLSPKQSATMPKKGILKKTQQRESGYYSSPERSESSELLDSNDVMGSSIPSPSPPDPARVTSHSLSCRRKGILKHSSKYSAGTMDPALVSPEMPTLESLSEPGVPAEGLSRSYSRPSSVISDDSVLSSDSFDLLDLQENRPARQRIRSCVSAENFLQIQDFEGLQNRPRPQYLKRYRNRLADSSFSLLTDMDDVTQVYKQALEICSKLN
As to the kind of experiment: Counter-screen against NUAK1. The method in brief: as §1

A value given as a limit tells only on which side of the number the result lay.

Take `C[C@H]1CN(c2ccc(Nc3ncc(C(F)(F)F)c(Nc4cccc5c4C(=O)NC5)n3)c(OC(F)F)c2)CCN1` [Compound I-50, (S)-7-((2-((2-(difluoromethoxy)-4-(3-methylpiperazin-1-yl)phenyl)amino)-5-(trifluoromethyl)pyrimidin-4-yl)amino)isoindolin-1-one]: the values for the IC50 on Aurora A, at NUAK2 (h) and against NUAK1 were over 1000 nM, 0.1 to 10 nM and 11 to 100 nM, respectively.

With `CN1CCN(c2ccc(Nc3ncc(Cl)c(Nc4cccc5c4C(=O)NC5)n3)cc2)CC1` [Compound I-51, 7-((5-chloro-2-((4-(4-methylpiperazin-1-yl)phenyl)amino)pyrimidin-4-yl)amino)isoindolin-1-one], the IC50 at Aurora A, at NUAK2 (h) and against NUAK1 was 0.1 to 10 nM throughout.

Take `O=C1NCc2cccc(Nc3nc(Nc4cc5c(cc4Cl)CNCC5)ncc3C(F)(F)F)c21` [Compound I-52, 7-((2-((7-chloro-1,2,3,4-tetrahydroisoquinolin-6-yl)amino)-5-(trifluoromethyl)pyrimidin-4-yl)amino)isoindolin-1-one]: the IC50 at Aurora A, on NUAK2 (h) and against NUAK1 was 11 to 100 nM each time.

Take `CN1CCN(c2ccc(Nc3ncc(C(F)(F)F)c(Nc4cccc5c4C(=O)NC5)n3)c(OC(F)(F)F)c2)CC1` [Compound I-53, 7-((2-((4-(4-methylpiperazin-1-yl)-2-(trifluoromethoxy)phenyl)amino)-5-(trifluoromethyl)pyrimidin-4-yl)amino)isoindolin-1-one]: the IC50 (as a rule, the concentration needed to halve the response being measured) was over 1000 nM on Aurora A, 11 to 100 nM at NUAK2 (h) and 101 to 1000 nM against NUAK1.

As for `O=C1NCc2cccc(Nc3nc(Nc4ccc(N5CCCNCC5)cc4OC(F)F)ncc3C(F)(F)F)c21` [Compound I-55, 7-((2-((4-(1,4-diazepan-1-yl)-2-(difluoromethoxy)phenyl)amino)-5-(trifluoromethyl)pyrimidin-4-yl)amino)isoindolin-1-one], the IC50 on Aurora A is over 1000 nM; at NUAK2 (h) it was 0.1 to 10 nM; on NUAK1, 11 to 100 nM.

Turning to `C[C@@H]1CN(c2ccc(Nc3ncc(C(F)(F)F)c(Nc4cccc5c4C(=O)NC5)n3)c(OC(F)F)c2)CCN1` [Compound I-57, (R)-7-((2-((2-(difluoromethoxy)-4-(3-methylpiperazin-1-yl)phenyl)amino)-5-(trifluoromethyl)pyrimidin-4-yl)amino)isoindolin-1-one], the IC50 at Aurora A is over 1000 nM; on NUAK2 (h), 0.1 to 10 nM; on NUAK1, 11 to 100 nM.

With `O=C1NCc2cccc(Nc3nc(Nc4ccc(N5CCC6(CCNCC6)CC5)cc4OC(F)F)ncc3C(F)(F)F)c21` [Compound I-58, 7-((2-((2-(difluoromethoxy)-4-(3,9-diazaspiro[5.5]undecan-3-yl)phenyl)amino)-5-(trifluoromethyl)pyrimidin-4-yl)amino)isoindolin-1-one], the IC50 at Aurora A lay within 101 to 1000 nM; on NUAK2 (h) it was 11 to 100 nM; at NUAK1, 11 to 100 nM.

Consider `O=C1NCc2cccc(Nc3nc(Nc4ccc(N5CCOCC5)cc4OC(F)F)ncc3C(F)(F)F)c21` [Compound I-60, 7-((2-((2-(difluoromethoxy)-4-morpholinophenyl)amino)-5-(trifluoromethyl)pyrimidin-4-yl)amino)isoindolin-1-one], for which the IC50 at Aurora A was 101 to 1000 nM; at NUAK2 (h) it was 11 to 100 nM; against NUAK1, 11 to 100 nM.

Consider `CCN(CC)CCOc1ccc(Nc2ncc(C(F)(F)F)c(Nc3cccc4c3C(=O)NC4)n2)cc1` [Compound I-61, 7-((2-((4-(2-(diethylamino)ethoxy)phenyl)amino)-5-(trifluoromethyl)pyrimidin-4-yl)amino)isoindolin-1-one], for which the 50% inhibitory concentration (IC50) was in the range of 101 to 1000 nM on Aurora A, 11 to 100 nM at NUAK2 (h) and 11 to 100 nM against NUAK1.

As for `CCN(CC)CCOc1ccc(Nc2ncc(Cl)c(Nc3cccc4c3C(=O)NC4)n2)cc1` [Compound I-62, 7-((5-chloro-2-((4-(2-(diethylamino)ethoxy)phenyl)amino)pyrimidin-4-yl)amino)isoindolin-1-one], the IC50 on Aurora A fell in the range of 11 to 100 nM; at NUAK2 (h), 0.1 to 10 nM; against NUAK1, 0.1 to 10 nM.

Regarding `O=C1NCc2cccc(Nc3nc(Nc4ccc(N5C[C@H]6CC[C@@H](C5)N6)cc4OC(F)F)ncc3Cl)c21` [Compound I-64, 7-((2-((4-((1R,5S)-3,8-diazabicyclo[3.2.1]octan-3-yl)-2-(difluoromethoxy)phenyl)amino)-5-chloropyrimidin-4-yl)amino)isoindolin-1-one], the IC50 on Aurora A is over 1000 nM; at NUAK2 (h), 0.1 to 10 nM; against NUAK1, 11 to 100 nM.

As to `CC1(C)CN(c2ccc(Nc3ncc(C(F)(F)F)c(Nc4cccc5c4C(=O)NC5)n3)c(OC(F)F)c2)CCN1` [Compound I-65, 7-((2-((2-(difluoromethoxy)-4-(3,3-dimethylpiperazin-1-yl)phenyl)amino)-5-(trifluoromethyl)pyrimidin-4-yl)amino)isoindolin-1-one], the values for the IC50 at Aurora A, on NUAK2 (h) and against NUAK1 were 101 to 1000 nM, 0.1 to 10 nM and 101 to 1000 nM, respectively.

On to `O=C1NCc2cccc(Nc3nc(Nc4ccc(N5C[C@@H]6C[C@H]5CN6)cc4OC(F)F)ncc3Cl)c21` [Compound I-66, 7-((2-((4-((1S,4S)-2,5-diazabicyclo[2.2.1]heptan-2-yl)-2-(difluoromethoxy)phenyl)amino)-5-chloropyrimidin-4-yl)amino)isoindolin-1-one], for which the IC50 is 101 to 1000 nM on Aurora A, 0.1 to 10 nM at NUAK2 (h) and 11 to 100 nM at NUAK1.

Turning to `O=C1NCc2cccc(Nc3nc(Nc4ccc(N5CCC(N6CCNCC6)CC5)cc4OC(F)F)ncc3Cl)c21` [Compound I-67, 7-((5-chloro-2-((2-(difluoromethoxy)-4-(4-(piperazin-1-yl)piperidin-1-yl)phenyl)amino)pyrimidin-4-yl)amino)isoindolin-1-one], the concentration for half-maximal inhibition (IC50) is 101 to 1000 nM on Aurora A, 0.1 to 10 nM on NUAK2 (h) and 11 to 100 nM on NUAK1.

As to `COc1nc(N2CCN(C)CC2)ccc1Nc1ncc(C(F)(F)F)c(Nc2cccc3c2C(=O)NC3)n1` [Compound I-68, 7-((2-((2-methoxy-6-(4-methylpiperazin-1-yl)pyridin-3-yl)amino)-5-(trifluoromethyl)pyrimidin-4-yl)amino)isoindolin-1-one], the half-inhibitory concentration (IC50) lay in the range of 101 to 1000 nM on Aurora A, 0.1 to 10 nM on NUAK2 (h) and 11 to 100 nM against NUAK1.

In the case of `CN1CCCN(C2CCN(c3ccc(Nc4ncc(C(F)(F)F)c(Nc5cccc6c5C(=O)NC6)n4)c(OC(F)F)c3)CC2)CC1` [Compound I-69, 7-((2-((2-(difluoromethoxy)-4-(4-(4-methyl-1,4-diazepan-1-yl)piperidin-1-yl)phenyl)amino)-5-(trifluoromethyl)pyrimidin-4-yl)amino)isoindolin-1-one], the IC50 was in the range of 101 to 1000 nM on Aurora A, 0.1 to 10 nM on NUAK2 (h) and 11 to 100 nM against NUAK1.

`O=C1NCc2cccc(Nc3nc(Nc4ccc(N5[C@@H]6CC[C@H]5CNC6)cc4OC(F)F)ncc3C(F)(F)F)c21` [Compound I-70, 7-((2-((4-((1R,5S)-3,8-diazabicyclo[3.2.1]octan-8-yl)-2-(difluoromethoxy)phenyl)amino)-5-(trifluoromethyl)pyrimidin-4-yl)amino)isoindolin-1-one]: the half-inhibitory concentration (IC50) at Aurora A was in the range of 101 to 1000 nM; at NUAK2 (h) it was 0.1 to 10 nM; against NUAK1 it was 11 to 100 nM.
